According to US10568992B2, “Peptides for supporting endothelial progenitor cell rolling and capture and endothelialization of biomaterials” (Auburn University, priority 2015, dated 2020):
Bridges are numbered along the chain shown (N, C = ends). Where no end group is shown, it is not given here.

Key:
[1] = test system: endothelial colony forming cells (ECFCs); experiment: ECFC rolling on peptide-grafted PEG hydrogels under shear (parallel plate flow chamber); assay type: cell-based; set-up: ECFC rolling velocity: unit not given here; conditions: for ECFC rolling velocity: 0.7 μmol/mL PEG-peptide grafted hydrogel; for ECFC rolling velocity / ECFC rolling velocities / rolling velocities of ECFCs: mean±SD (n=3); for ECFC rolling velocities: FIG. 15A; for support of ECFC rolling (velocity below rolling cutoff, 40% of average fluid velocity): shear rates 20-120 s^−1; for rolling velocities of ECFCs: FIG. 13A
Description: (§1) Umbilical cord blood ECFCs were used in this study. To create the peptide-grafted PEG surfaces, PEG-DA was first photopolymerized to form a hydrogel base. Peptides were conjugated to acryloyl-PEG-SVA to produced the PEG-peptides, and 0.7 μmol/mL of each PEG-peptide was grafted onto the surface of the PEG hydrogel base. Shear experiments were performed to examine ECFC rolling and adhesion on the hydrogel surfaces. Using a Glycotech parallel plate flow chamber, the ECFC cell suspension was sheared over the hydrogels at shear rates of 20 s^−1, 40 s^−1, 80 s^−1, and 120 s^−1. Cell rolling events were recorded at 70 fps using a high speed camera. Cell tracking was performed using ImageJ and Matlab to determine rolling velocities. Finally ECFC retention on the RGDSQ ID NO:3)-grafted PEG hydrogels was quantified under superphysiological shear stress.
To form the PEG-peptide grafting solution, the acryloyl-PEG-peptide was first dissolved in sterile PBS at the desired concentration (ranging from 0.7 mM to 5.6 mM) and the photoinitiator was added as described above. After each PEGDA hydrogel was photocrosslinked, the top plate of the mold was removed. The hydrogels were rinsed with sterile PBS and briefly dried with a stream of nitrogen to remove excess PBS on the surface of the hydrogel. The mold's 0.5 mm PDMS spacers were replaced with 0.7 mm PDMS spacers and a clean glass slide was placed on top. Then the PEG-peptide grafting solution was injected between the hydrogel and the new piece of glass and photocrosslinked to the top of the PEGDA hydrogel under the UV lamp for 7 min. PEG-peptide grafted hydrogels were then rinsed and swollen in sterile PBS for experiments.
To identify whether a cell is rolling, the upper velocity cutoff was determined by flowing ECFCs across the surface of control PEG hydrogels at different shear rates. Using video recordings, ECFC rotation on the focal plane of PEG hydrogels was observed. […] Therefore, based on these experiments, 40% of average fluid flow velocity was used as the cutoff velocity for cell rolling as is shown in FIG. 12.

[2] = test system: endothelial colony forming cells (ECFCs); experiment: ECFC capture on peptide-grafted PEG hydrogels under shear; assay type: cell-based; conditions: 20 s^−1; for ECFCs captured (captured cells normalized to total cells interacting with hydrogel surface): 2 min recordings, total 0.7 μmol/mL peptide grafted (combinations 0.35/0.35 μmol/mL), mean±SD (n=3); for ECFC capture events (in words): low shear rate
Description: as §1
Cell capture events were consistently observed on CRRETAWAC (SEQ ID NO:1)- and PRb (SEQ ID NO:18)-grafted hydrogels at 20 s^−1. Number of captured cells were counted and normalized to the total number of cells interacted with each hydrogel surface. During each of the 2 min recordings, 3.74%±1.0% of ECFCs were captured on CRRETAWAC (SEQ ID NO:1)-grafted hydrogels and 1.14%±0.2% of ECFCs were captured on PRb-grafted hydrogels FIG. 9. Since both of these novel peptides are specific for the integrin α5β1, the result of this study strongly supports that α5β1 is responsible for cell capture.
To further evaluate the potential use of CRRETAWAC (SEQ ID NO:1) and PRb in the ECFC capture for endothelialization, ECFC rolling on hydrogels that were grafted with combinations of CRRETAWAC (SEQ ID NO:1) or PRb (SEQ ID NO:18) with REDV (SEQ ID NO:2) was assessed. In order to maintain consistent grafting of peptides, a final concentrations of 0.7 μmol/mL of equal molar mixtures of acryloyl-PEG-peptides precursors were grafted onto the surface of PEG hydrogels.

[3] = test system: endothelial colony forming cells (ECFCs); experiment: Adhesion of ECFCs on peptide-grafted PEG hydrogels (static); assay type: cell-based; conditions: for ECFC adhesion and spreading: after 24 hours; for ECFC monolayer formation and cobble stone morphology: peptide-grafted hydrogels
Text: ECFC adhesion on (A) CRRETAWAC (SEQ ID NO:1)-(B) PRb ([…]), —(C) P11 (SEQ ID NO: 11)-grafted PEG hydrogels.
Adhesion of ECFCs on CRRETAWAC (SEQ ID NO:1)-, PRb (SEQ ID NO:18)-, P11 (SEQ ID NO: 11)-grafted hydrogels was first accessed. […] On P11-grafted hydrogels, ECFCs aggregated to form adherent cell clumps. […] Without the ability to support cell spreading and the formation of monolayer, P11 alone could not support ECFC endothelialization which is critical for healing damaged and diseased blood vessels.

[4] = target: integrin α5β1 (Homo sapiens, UniProt P05556+P08648); conditions: among the non-RGD containing peptides of the library; cited from earlier work
[5] = target: αvβ3 integrin (Homo sapiens, UniProt P05106+P06756); conditions: among 12 HXXXHK hexapeptides; cited from earlier work
Sequence of αvβ3 integrin (P06756 31-889 limits assumed): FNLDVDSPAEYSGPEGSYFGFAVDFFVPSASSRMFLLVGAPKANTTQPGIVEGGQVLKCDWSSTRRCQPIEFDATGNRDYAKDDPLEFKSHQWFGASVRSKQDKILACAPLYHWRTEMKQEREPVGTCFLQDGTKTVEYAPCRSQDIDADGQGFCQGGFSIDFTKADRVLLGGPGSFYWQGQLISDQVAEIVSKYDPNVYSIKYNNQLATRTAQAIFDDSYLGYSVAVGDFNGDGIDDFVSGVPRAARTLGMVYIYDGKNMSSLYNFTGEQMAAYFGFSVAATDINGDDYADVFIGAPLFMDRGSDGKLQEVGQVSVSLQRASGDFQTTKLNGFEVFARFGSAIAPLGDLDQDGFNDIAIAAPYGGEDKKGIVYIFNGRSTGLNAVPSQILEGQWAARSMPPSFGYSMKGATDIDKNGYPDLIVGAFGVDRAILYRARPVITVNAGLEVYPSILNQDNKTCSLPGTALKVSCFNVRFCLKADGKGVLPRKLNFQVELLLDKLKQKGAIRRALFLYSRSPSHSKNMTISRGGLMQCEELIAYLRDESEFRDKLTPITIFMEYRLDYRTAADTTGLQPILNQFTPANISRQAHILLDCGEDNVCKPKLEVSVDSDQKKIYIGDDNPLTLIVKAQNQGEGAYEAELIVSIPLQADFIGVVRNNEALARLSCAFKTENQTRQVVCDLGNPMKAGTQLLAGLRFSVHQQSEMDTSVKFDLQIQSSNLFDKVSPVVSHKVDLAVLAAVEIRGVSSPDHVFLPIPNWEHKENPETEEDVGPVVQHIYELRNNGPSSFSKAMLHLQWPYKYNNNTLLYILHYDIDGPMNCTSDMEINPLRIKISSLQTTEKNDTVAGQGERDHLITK
Sequence of αvβ3 integrin (P06756 891-1048 partner limits assumed): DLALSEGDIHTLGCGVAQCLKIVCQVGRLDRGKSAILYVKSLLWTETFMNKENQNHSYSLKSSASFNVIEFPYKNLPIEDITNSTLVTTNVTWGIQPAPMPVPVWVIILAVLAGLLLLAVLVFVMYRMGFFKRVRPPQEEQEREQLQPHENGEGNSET
Sequence of αvβ3 integrin (P05106 27-788): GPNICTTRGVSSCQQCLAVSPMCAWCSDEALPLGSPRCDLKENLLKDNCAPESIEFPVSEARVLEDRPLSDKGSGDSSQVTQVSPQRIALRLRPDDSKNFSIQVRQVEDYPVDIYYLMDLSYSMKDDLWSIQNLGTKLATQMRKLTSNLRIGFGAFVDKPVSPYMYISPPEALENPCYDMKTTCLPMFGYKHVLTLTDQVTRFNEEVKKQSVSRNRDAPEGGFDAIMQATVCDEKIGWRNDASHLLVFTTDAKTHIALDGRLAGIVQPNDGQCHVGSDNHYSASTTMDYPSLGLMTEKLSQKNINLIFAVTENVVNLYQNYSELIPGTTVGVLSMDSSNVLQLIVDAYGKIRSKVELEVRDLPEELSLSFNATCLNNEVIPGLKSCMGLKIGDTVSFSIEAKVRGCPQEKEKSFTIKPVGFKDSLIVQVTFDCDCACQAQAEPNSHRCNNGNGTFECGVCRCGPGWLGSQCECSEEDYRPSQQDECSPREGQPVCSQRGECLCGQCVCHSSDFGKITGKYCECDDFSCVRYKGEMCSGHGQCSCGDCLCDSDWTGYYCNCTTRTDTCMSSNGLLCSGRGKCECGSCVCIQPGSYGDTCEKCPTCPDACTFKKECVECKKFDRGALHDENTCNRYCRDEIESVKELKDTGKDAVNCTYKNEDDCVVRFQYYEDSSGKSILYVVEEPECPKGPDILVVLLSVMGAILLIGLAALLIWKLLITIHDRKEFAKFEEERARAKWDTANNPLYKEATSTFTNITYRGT

Sequence of integrin α5β1 (P08648 42-894 limits assumed): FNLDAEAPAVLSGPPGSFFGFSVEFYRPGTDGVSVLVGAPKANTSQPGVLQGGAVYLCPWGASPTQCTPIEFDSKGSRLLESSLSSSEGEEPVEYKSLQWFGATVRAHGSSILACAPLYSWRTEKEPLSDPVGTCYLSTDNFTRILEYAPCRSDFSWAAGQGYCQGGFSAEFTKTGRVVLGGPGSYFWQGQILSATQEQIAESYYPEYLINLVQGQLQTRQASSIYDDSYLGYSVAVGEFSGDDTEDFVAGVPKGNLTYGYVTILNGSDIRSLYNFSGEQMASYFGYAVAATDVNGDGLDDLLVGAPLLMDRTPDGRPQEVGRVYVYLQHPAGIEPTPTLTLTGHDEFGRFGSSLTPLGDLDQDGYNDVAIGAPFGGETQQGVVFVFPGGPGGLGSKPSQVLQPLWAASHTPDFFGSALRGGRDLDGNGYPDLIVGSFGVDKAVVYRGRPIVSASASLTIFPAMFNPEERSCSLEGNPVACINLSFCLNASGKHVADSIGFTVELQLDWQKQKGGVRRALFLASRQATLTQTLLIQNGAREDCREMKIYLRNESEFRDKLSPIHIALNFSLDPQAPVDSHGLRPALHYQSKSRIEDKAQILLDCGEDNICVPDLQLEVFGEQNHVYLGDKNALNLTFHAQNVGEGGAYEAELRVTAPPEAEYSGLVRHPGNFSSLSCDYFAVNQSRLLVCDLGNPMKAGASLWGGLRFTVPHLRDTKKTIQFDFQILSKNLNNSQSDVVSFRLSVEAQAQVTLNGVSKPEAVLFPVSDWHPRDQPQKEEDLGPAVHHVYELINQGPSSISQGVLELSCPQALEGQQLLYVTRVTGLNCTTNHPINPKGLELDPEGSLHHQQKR
Sequence of integrin α5β1 (P08648 895-1049 partner limits assumed): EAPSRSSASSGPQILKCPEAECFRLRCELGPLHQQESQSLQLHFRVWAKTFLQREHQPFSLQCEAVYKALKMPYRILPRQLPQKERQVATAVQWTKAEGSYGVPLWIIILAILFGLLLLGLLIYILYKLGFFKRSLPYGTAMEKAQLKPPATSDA
Sequence of integrin α5β1 (P05556 21-798): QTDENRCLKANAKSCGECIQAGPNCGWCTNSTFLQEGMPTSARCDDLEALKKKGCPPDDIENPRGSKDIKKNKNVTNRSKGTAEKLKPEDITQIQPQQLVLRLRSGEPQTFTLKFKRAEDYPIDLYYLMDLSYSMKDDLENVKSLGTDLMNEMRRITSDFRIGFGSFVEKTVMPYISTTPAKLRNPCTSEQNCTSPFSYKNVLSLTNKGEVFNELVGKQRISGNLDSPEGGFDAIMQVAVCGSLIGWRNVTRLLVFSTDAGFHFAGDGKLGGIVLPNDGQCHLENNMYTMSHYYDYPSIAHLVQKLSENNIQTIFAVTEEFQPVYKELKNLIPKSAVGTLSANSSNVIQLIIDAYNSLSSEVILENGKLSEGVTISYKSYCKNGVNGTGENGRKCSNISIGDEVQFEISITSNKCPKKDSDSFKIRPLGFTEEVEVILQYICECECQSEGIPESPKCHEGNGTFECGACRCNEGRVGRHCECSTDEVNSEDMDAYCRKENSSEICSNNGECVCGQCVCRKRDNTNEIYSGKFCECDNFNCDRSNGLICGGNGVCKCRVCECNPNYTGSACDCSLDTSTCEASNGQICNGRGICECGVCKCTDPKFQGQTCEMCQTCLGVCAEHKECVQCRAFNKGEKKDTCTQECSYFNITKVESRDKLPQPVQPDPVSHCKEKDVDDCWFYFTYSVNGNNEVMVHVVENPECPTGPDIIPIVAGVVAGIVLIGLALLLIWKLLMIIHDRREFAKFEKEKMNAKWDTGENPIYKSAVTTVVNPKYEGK

Substance	ECFC rolling velocity ([1]; shear rate 20 1/s)	ECFC rolling velocity ([1]; shear rate 40 1/s)	ECFC rolling velocity ([1]; shear rate 80 1/s)	ECFC rolling velocity ([1]; shear rate 120 1/s)	ECFCs captured (captured cells normalized to total cells interacting with hydrogel surface) [2] [%]	ECFC adhesion and spreading [3]	ECFC monolayer formation and cobble stone morphology [3]	affinity to α5β1 [4]	competition with fluorescently labeled VN for αvβ3 [5]	ECFC rolling velocities ([1]; 20 s^−1) [μm s^−1]	ECFC rolling velocities ([1]; 40 s^−1) [μm s^−1]	ECFC rolling velocities ([1]; 80 s^−1) [μm s^−1]	ECFC rolling velocities ([1]; 120 s^−1) [μm s^−1]	support of ECFC rolling (velocity below rolling cutoff, 40% of average fluid velocity) [1]	ECFC capture events (in words) [2]	rolling velocities of ECFCs ([1]; 20 s^−1) [μm/s]	rolling velocities of ECFCs ([1]; 40 s^−1) [μm/s]	rolling velocities of ECFCs ([1]; 80 s^−1) [μm/s]	rolling velocities of ECFCs ([1]; 120 s^−1) [μm/s]
CRRETAWAC (disulfide 1-9 (inferred); also: grafted on PEG hydrogel via acryloyl-PEG)	131.6	278.4 ± 28.6	550.6 ± 64.1	828.4 ± 82.7	3.74	supported ECFC adhesion and spreading	able to form monolayer and maintain cobble stone morphology	highest affinity	–	–	–	–	–	–	–	–	–	–	–
HSDVHK [Peptide P11, synthesized as HSDVHKG]	127.5	251.0 ± 41.2	508.0 ± 86.5	787.6 ± 102.1	–	only able to support ECFC adhesion, but not spreading	not	–	most competitive for αvβ3	–	–	–	–	–	–	–	–	–	–
PHSRNSGSGSGSGSGRGDSG [PRb]	110.3	235.0 ± 36.1	485.7 ± 67.5	735.1 ± 102.6	1.14	supported ECFC adhesion and spreading	able to form monolayer and maintain cobble stone morphology	–	–	–	–	–	–	–	–	–	–	–	–
REDV (also: PEG conjugate)	78.6	183.3 ± 43.4	353.8 ± 82.0	564.3 ± 177.0	–	–	not	–	–	79±4	181±6	357±6	560±15	supported ECFC rolling	does not support capture even at low shear rates	–	–	–	–
RGDS (also: PEG conjugate) [ubiquitous cell adhesion peptide]	102.2	218.7 ± 42.4	455.8 ± 86.7	739.7 ± 121.9	–	–	able to form monolayer and maintain cobble stone morphology	–	–	–	–	–	–	supported ECFC rolling at all shear rates	Some ECFC capture events were observed	103±3	223±14	469±38	741±28
RGES (also: PEG conjugate)	–	–	–	–	–	–	–	–	–	–	–	–	–	did not support ECFC rolling	–	–	–	–	–
YIGSRG (also: PEG conjugate)	103.2	223.2 ± 38.0	487.6 ± 72.5	737.0 ± 107.9	–	–	not	–	–	102±9	223±22	484±12	740±10	supported ECFC rolling	–	–	–	–	–
